How the values were obtained:
[1] = Therapeutic index, IC50 for C8166 cells to EC50 for HIV1; assay type: cell-based; details: human, read-out: Ratio IC50/EC50
C8166 = test: Cytotoxicity against C8166 cells assessed as reduction in total cell number; assay type: cell-based; details: Homo sapiens
[2] = tested on: Human immunodeficiency virus 1; test: Antiviral activity against HIV1 in C8166 cells assessed as inhibition of syncytia formation; assay type: functional, organism-based; details: Human immunodeficiency virus 1, C8166

Compound	selectivity ratio [1]	IC50 (C8166) [µM]	EC50 [2] [µM]
Cc1cn([C@H]2C[C@H](N=[N+]=N)[C@@H](CO)O2)c(=O)[nH]c1=O	55600	500	0.009
COc1cc([C@@H]2c3cc4c(cc3[C@H](NC(=O)OC[C@@H]3C=C[C@H](n5cc(C)c(=O)[nH]c5=O)O3)[C@H]3COC(=O)[C@H]23)OCO4)cc(OC)c1OC	14.4	3.39	0.24
COc1cc2c(cc1OC)[C@@H](NC(=O)OC[C@@H]1C=C[C@H](n3cc(C)c(=O)[nH]c3=O)O1)[C@H]1COC(=O)[C@@H]1[C@@H]2c1cc(OC)c(OC)c(OC)c1	> 67.1	> 295	4.39
COc1cc2c(cc1OC)[C@@H](C#N)[C@H]1COC(=O)[C@@H]1[C@@H]2c1cc(OC)c(OC)c(OC)c1	131	138	1.05
COc1cc([C@@H]2c3cc4c(cc3[C@H](NC(=O)OC[C@@H]3C=C[C@H](n5cc(C)c(=O)[nH]c5=O)O3)[C@H]3COC(=O)[C@H]23)OCO4)cc(OC)c1O	355	104	0.29
COc1cc([C@@H]2c3cc4c(cc3[C@@H](NC(=O)OC[C@@H]3C=C[C@H](n5cc(C)c(=O)[nH]c5=O)O3)[C@H]3COC(=O)[C@H]23)OCO4)cc(OC)c1O	467	79.1	0.17
COc1cc([C@@H]2c3cc4c(cc3[C@@H](NC(=O)OC[C@@H]3C=C[C@H](n5cc(C)c(=O)[nH]c5=O)O3)[C@H]3COC(=O)[C@H]23)OCO4)cc(OC)c1OC	12.5	68.2	5.46
COc1cc2c(cc1OC)[C@@H](C(=O)O)[C@H]1COC(=O)[C@@H]1[C@@H]2c1cc(OC)c(OC)c(OC)c1	> 9.31	> 437	46.9
COc1cc([C@@H]2c3cc4c(cc3[C@H](O)[C@H]3COC(=O)[C@H]23)OCO4)cc(OC)c1OC [PODOFILOX]	53.3	< 0.15	0.0029
